Read-outs that look alike come from different tables or passages of the source. Blank lines part the entries; values can stand above or below the compound they belong to.
Tests used:
[1] = molecular target: T1, TRPM8-Y745H mutant channel (Mus musculus, UniProt Q8R4D5, Y745H); assay: Calcium imaging (Fura-2) of HEK293 cells expressing TRPM8-Y745H; format: cell-based
T1 construct: The full length cDNA encoding mouse TRPM8 (NM_134252) in pcDNA5; expressed in transfected cells; host or cells: HEK293
Method: (§1) The full length cDNA encoding mouse TRPM8 (NM_134252) in pcDNA5 (Invitrogen) was kindly provided by Dr. Ardem Patapoutian, (Scripps Research Institute, La Jolla, CA). The TRPM8-Y745H mutant was obtained by site-directed mutagenesis with the following primers: (for) 5'-[…]-3'; (rev) 5'-[…]-3', and Pfu Turbo Taq DNA Polymerase (Roche).
(§2) HEK293 cells were cultured in DMEM containing 10% of foetal bovine serum and antibiotics, and plated in 2 cm^2 wells at 400.000-500.000 cells/well. 20-24 h after plating, the cells were co-transfected with eGFP (0.3 μg/well) and TRPM8-wt or TRPM8-Y745H (2 μg/well) by incubating them with a solution containing the plasmid DNA and Lipofectamine 2000 (Invitrogen) for 5 hours. Subsequently, the cells were trypsinized and replated on poly-L-lysine-coated round coverslips (6 mm diameter). 20-48 h post-transfection, GFP(+) cells were selected for calcium imaging or electrophysiology experiments.
(§3) Prior to experiment, HEK293 cells transfected with the TRPM8-wt/Y745H constructs were incubated with 5 μM Fura-2AM dissolved in the bath solution and 0.02% Pluronic (both from Invitrogen) for 40 min at 37°C in darkness. Fluorescence measurements were made with a Leica DM IRE2 inverted microscope fitted with a CCD camera (Imago QE Sensicam, TillPhotonics, Graefelfing, Germany). Fura-2 was excited at 340 nm and 380 nm with a Polychrome IV monochromator (Till Photonics) and the emitted fluorescence was filtered with a 510 nm longpass filter.
(§4) Coverslip pieces with cultured cells were placed in a microchamber and continuously perfused with solutions warmed at 33°C. The temperature was adjusted with a water-cooled Peltier device placed at the inlet of the chamber, and controlled by a feedback device. Cold-sensitivity was investigated with a temperature decrease to 18-20°C (Figure 1B).

TRPM8-wt channel [2] = details: electrophysiology (EP), +80 mV, cited from earlier work
[3] = molecular target: T1, TRPM8-Y745H mutant channel; assay: Whole-cell patch clamp of HEK293 cells expressing TRPM8-Y745H; format: cell-based; details: for Inhibition of voltage-activated TRPM8-Y745H current: +120 mV
Method: as §1, §2
(§5) Whole-cell voltage-clamp recordings of TRPM8-wt/Y745H transfected HEK293 cells were performed simultaneously with temperature recordings. Current development was monitored at a holding potential of -60 mV. For information on voltage-dependent effects, 1.25-s-duration voltage ramps from -100 to +150 mV were delivered at desired time points. Standard patch-pipettes (3-5 MΩ) were made of borosilicate glass capillaries (Harvard Apparatus Ltd, UK), and contained (in mM): 150 NaCl, 3 MgCl2, 5 EGTA, 10 HEPES, (278 mOsm/kg; pH 7.2, adjusted with NaOH). During electrophysiological recordings, a divalent cation -free bath solution was used to minimize desensitization, which contained: 150 NaCl, 10 EDTA, 10 HEPES and 10 glucose (pH 7.4 with NaOH). The divalent-free solution was used in the preparation of all chemical modulator containing solutions. Current signals were recorded with an Axopatch 200B patch-clamp amplifier (Molecular Devices, Sunnyvale, CA, U.S.A.) applying series resistance compensation (60-90%). Stimulus delivery and data acquisition were performed using pClamp 9 software (Molecular Devices). Data were sampled at 5 kHz (ramps) and 1 kHz (timecourse) and filtered online at 2 kHz.
as §4
Experiments were always performed in parallel with cells expressing TRPM8-wt and TRPM8-Y745H to minimize any day-to-day variability in experimental conditions. To estimate the shifts in the voltage-dependence of activation of TRPM8-wt/Y745H in HEK293 cells, current-voltage (I-V) relationships from voltage ramps were fitted with an equation that combines a linear conductance multiplied by a Boltzmann activation term: [drawing 1]

TRPM8-wt channel [4] = details: calcium imaging (CI), cited from earlier work
TRPM8-wt channel [5] = molecular target: T2, TRPM8-wt channel (Mus musculus, UniProt Q8R4D5); assay: Whole-cell patch clamp of HEK293 cells expressing TRPM8-wt; format: cell-based; details: for Inhibition of voltage-activated TRPM8-wt current: 33°C, +120 mV
T2 construct: The full length cDNA encoding mouse TRPM8 (NM_134252) in pcDNA5; expressed in transfected cells; host or cells: HEK293
Method: as §1, §2, §5, §4
Experiments were always performed in parallel with cells expressing TRPM8-wt and TRPM8-Y745H to minimize any day-to-day variability in experimental conditions. […]

TRPM8-wt channel [6] = molecular target: T2, TRPM8-wt channel; design: method as in PMID 14757700; details: 100 μM menthol-activated TRPM8-wt, FLIPR; cited from earlier work
TRPM8-wt channel [7] = molecular target: T2, TRPM8-wt channel; assay: Calcium imaging (Fura-2) of HEK293 cells expressing TRPM8-wt; format: cell-based
Method: as §1, §2, §3, §4

[8] = Solubility in the extracellular solution; format: physicochemical; details: reproducible data above 20 μM complicated
[9] = 3 μM antagonist, compared with TRPM8-wt
[10] = cold-activated TRPM8-wt, read-out: IC50 cold (converted)
[11] = 100 μM menthol-activated TRPM8-wt, modified from ref 25, read-out: IC50 menthol
[12] = cold-activated TRPM8-wt, read-out: IC50 cold
[13] = 100 μM, at 33°C or during cooling

T2 sequence (Q8R4D5 whole entry): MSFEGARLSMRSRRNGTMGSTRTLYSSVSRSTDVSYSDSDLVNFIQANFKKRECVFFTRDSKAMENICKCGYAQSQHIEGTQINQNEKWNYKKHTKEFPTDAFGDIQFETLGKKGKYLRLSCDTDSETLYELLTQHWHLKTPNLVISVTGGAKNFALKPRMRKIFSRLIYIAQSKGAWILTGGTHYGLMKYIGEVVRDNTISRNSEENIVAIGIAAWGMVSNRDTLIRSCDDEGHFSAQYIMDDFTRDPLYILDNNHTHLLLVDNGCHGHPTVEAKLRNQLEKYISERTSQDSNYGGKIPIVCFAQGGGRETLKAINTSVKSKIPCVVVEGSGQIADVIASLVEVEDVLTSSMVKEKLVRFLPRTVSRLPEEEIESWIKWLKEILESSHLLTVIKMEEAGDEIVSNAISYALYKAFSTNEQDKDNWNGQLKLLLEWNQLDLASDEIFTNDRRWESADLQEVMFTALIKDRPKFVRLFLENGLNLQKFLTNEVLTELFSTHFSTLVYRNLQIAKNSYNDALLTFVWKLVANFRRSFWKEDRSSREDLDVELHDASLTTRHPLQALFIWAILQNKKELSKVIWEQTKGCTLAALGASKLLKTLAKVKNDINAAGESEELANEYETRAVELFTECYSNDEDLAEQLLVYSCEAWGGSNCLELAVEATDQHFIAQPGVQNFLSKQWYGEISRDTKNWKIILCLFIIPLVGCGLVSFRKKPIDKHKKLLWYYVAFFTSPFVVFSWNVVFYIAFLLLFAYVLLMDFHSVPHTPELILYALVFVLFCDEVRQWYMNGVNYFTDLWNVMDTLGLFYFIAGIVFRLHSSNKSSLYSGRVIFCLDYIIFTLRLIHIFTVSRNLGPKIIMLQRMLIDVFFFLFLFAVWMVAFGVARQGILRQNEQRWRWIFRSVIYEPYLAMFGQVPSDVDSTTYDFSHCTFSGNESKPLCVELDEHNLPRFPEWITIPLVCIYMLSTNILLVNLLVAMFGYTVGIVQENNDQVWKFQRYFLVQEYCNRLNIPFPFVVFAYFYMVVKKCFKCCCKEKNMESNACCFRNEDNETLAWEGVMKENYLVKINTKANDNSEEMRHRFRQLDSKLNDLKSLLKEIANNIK
T1 sequence (Q8R4D5 whole entry Y745H): as the sequence (Q8R4D5 whole entry) above, with Y745H counted along it

Structure (SMILES): CC(C)(C)c1ccc(NC(=O)N2CCN(c3ncccc3Cl)CC2)cc1 [BCTC, 4-[3-chloro-pyridin-2-yl]-piperazine-1-carboxylic acid [4-tert-butyl-phenyl]-amide]
Block of cold-evoked [Ca2+]i response of TRPM8-Y745H [1, 9]: maintained its full and reversible blocking potential
IC50 (TRPM8-wt channel [2]; 100 μM menthol-activated TRPM8-wt, modified from ref 25, read-out: IC50 menthol (converted)): 0.34 µM
IC50 (TRPM8-wt channel [2]; [10]): 0.54 µM
Block of cooling-activated TRPM8-Y745H current ([3]; 3 μM, +80 mV): 98%
Inhibition of voltage-activated TRPM8-Y745H current ([3]; 33°C, 3 μM): without affecting the block
IC50 (TRPM8-wt channel [4]; [11]): 0.47 ± 0.01 µM
IC50 (TRPM8-wt channel [4]; [12]): 0.68 ± 0.06 µM
Inhibition of voltage-activated TRPM8-wt current (TRPM8-wt channel [5]; 3 μM): strong inhibition

Structure (SMILES): Oc1cc2c(cc1O)CN(C(=S)NCCc1ccc(Cl)cc1)CCC2 [Capsazepine, N-[2-(4-Chlorophenyl)ethyl]-1,3,4,5-tetrahydro-7,8-dihydroxy-2H-2-benzazepine-2-carbothioamide]
Inhibitory potency at cooling-activated TRPM8-Y745H compared with wild-type (dose-inhibition curves) ([1]; calcium imaging, cooling-activated): lost part of their inhibitory potential
IC50 (TRPM8-wt channel [6]): 18 ± 1 µM
IC50 (TRPM8-wt channel [7]; cold-activated TRPM8-wt, calcium imaging (CI), this work): 12 ± 2 µM

Structure (SMILES): c1c[nH]cn1 [Imidazole, 1,3-diazacyclopenta-2,4-diene]
Inhibition of cooling-activated TRPM8-Y745H ([1]; 20 μM, 100 μM and 1 mM): ineffective
Inhibition of cooling-activated TRPM8 wild-type (TRPM8-wt channel [7]; 20 μM, 100 μM and 1 mM): ineffective

Structure (SMILES): CC1CCC(C(C)C)C(O)C1 [menthol, L-menthol]
Agonist effect on intracellular calcium, TRPM8-Y745H [1, 13]: lack of menthol responses
Agonist effect on whole-cell current, TRPM8-Y745H ([3]; 100 μM, 33°C, all potentials): completely insensitive to menthol
Agonist effect on intracellular calcium, TRPM8-wt (TRPM8-wt channel [7]; [13]): increase the intracellular calcium levels

Now from value to compound, other results behind:

Solubility in the extracellular solution [8]: limited solubility
Structure (SMILES): Clc1ccccc1C(c1ccccc1)(c1ccccc1)n1ccnc1 [Clotrimazole, 1-[(2-chlorophenyl)diphenylmethyl]-1H-imidazole]

Block of cold-evoked [Ca2+]i response of TRPM8-Y745H [1, 9]: nearly complete loss of effect
Block of cold-evoked [Ca2+]i response of TRPM8-Y745H ([1]; 20 μM (super saturating concentration), compared with 3 μM): unable to increase block
Block of cold-evoked TRPM8-Y745H current ([3]; 3 μM): completely failed to block
Block of cold-evoked TRPM8-Y745H current ([3]; 20 μM): lacked any inhibitory effects
Inhibition of voltage-activated TRPM8-Y745H current ([3]; 33°C, 3 μM): fully abrogated the inhibition
Apparent gating charge during antagonist application ([3]; TRPM8-Y745H, cooling, 3 μM SKF96365): 0.63 ± 0.04
Block of cold-evoked TRPM8-wt current (TRPM8-wt channel [5]; 3 μM): potent antagonism
Inhibition of voltage-activated TRPM8-wt current (TRPM8-wt channel [5]; 3 μM): strong inhibition
Apparent gating charge during antagonist application (TRPM8-wt channel [5]; TRPM8-wt, cooling, 3 μM SKF96365): 0.73 ± 0.04
Structure (SMILES): COc1ccc(CCCOC(Cn2ccnc2)c2ccc(OC)cc2)cc1 (centres unmarked) [SKF96365]
IC50 (TRPM8-wt channel [2]; [10]): 0.8 µM
IC50 (TRPM8-wt channel [4]; [11]): 3 ± 1 µM
IC50 (TRPM8-wt channel [4]; [12]): 1 ± 0.2 µM

— article PMC2778643, “Differential role of the menthol-binding residue Y745 in the antagonism of thermally gated TRPM8 channels” (Molecular Pain, 2009)
